These results are taken from ChEMBL document CHEMBL5465560, “Selectivity Literature for EUbOPEN Chemogenomic Library” (2024).

Test [1] relates to Hepatocyte growth factor receptor (Homo sapiens), P08581 [Y1235D]. Conditions: at 10 µM.
Test [2] addresses T1, Interleukin-1 receptor-associated kinase 3 (Homo sapiens) (UniProt Q9Y616).
T1 sequence (whole entry): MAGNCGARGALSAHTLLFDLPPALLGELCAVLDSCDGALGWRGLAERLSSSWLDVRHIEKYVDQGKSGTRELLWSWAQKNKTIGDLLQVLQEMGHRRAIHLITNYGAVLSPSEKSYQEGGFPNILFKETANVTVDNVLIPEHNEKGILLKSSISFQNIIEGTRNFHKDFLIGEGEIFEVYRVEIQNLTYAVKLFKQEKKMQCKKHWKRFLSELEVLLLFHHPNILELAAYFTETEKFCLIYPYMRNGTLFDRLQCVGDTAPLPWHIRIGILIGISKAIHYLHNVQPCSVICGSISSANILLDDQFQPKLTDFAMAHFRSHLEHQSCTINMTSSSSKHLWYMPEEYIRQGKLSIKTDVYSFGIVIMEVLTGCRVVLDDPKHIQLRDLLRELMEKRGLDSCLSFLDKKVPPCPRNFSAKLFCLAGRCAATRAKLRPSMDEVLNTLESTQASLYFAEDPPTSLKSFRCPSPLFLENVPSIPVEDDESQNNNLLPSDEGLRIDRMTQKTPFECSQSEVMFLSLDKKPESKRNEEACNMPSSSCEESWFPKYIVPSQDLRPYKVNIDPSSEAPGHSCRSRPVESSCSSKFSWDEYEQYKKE
Briefly: Selectivity interaction (KinomeScan (DiscoverX)) EUB0000595a IRAK3. The following applies: at 10 µM.

Test [3] concerns the target Tyrosine-protein kinase BTK (Homo sapiens, UniProt Q06187). Put plainly: Selectivity interaction (Kinase screening (Nanosyn)) EUB0000604a BTK.
Test [4] concerns the target T2, Inhibitor of nuclear factor kappa-B kinase subunit alpha (Homo sapiens) (UniProt O15111).
T2 sequence (whole entry): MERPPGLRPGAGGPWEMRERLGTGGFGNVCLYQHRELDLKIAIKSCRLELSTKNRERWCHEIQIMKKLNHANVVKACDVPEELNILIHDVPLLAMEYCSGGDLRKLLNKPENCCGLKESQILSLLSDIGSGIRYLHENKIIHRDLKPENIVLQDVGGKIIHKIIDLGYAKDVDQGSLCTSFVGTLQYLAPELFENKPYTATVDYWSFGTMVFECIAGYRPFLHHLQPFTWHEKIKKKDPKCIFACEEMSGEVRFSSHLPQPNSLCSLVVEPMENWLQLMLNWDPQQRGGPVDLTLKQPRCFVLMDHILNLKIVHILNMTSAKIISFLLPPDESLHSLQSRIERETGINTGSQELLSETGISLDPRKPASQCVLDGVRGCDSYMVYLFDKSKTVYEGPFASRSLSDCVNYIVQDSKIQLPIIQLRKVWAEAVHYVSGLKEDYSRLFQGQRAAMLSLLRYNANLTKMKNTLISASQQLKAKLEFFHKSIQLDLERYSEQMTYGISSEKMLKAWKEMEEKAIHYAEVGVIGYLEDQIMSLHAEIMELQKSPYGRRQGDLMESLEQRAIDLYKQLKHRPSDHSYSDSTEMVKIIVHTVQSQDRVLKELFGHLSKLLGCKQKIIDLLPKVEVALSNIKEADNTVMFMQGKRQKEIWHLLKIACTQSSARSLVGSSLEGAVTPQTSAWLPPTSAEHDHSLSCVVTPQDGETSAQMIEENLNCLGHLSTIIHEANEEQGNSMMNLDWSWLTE

Test [5] concerns the target Serine/threonine-protein kinase 10 (Homo sapiens) (UniProt O94804). Briefly: Selectivity interaction (ActivX KiNativ screen (kinase selectivity in THP-1 cell lysates)) EUB0000639a STK10. It counts as subcellular. The following applies: lysate.
The target in test [6] is Mitogen-activated protein kinase kinase kinase kinase 5 (Homo sapiens) (UniProt Q9Y4K4). Put plainly: Selectivity interaction (ProQinase) EUB0000171b MAP4K5.
Mitogen-activated protein kinase kinase kinase kinase 5 (Homo sapiens), sequence (Q9Y4K4 whole entry, looked up): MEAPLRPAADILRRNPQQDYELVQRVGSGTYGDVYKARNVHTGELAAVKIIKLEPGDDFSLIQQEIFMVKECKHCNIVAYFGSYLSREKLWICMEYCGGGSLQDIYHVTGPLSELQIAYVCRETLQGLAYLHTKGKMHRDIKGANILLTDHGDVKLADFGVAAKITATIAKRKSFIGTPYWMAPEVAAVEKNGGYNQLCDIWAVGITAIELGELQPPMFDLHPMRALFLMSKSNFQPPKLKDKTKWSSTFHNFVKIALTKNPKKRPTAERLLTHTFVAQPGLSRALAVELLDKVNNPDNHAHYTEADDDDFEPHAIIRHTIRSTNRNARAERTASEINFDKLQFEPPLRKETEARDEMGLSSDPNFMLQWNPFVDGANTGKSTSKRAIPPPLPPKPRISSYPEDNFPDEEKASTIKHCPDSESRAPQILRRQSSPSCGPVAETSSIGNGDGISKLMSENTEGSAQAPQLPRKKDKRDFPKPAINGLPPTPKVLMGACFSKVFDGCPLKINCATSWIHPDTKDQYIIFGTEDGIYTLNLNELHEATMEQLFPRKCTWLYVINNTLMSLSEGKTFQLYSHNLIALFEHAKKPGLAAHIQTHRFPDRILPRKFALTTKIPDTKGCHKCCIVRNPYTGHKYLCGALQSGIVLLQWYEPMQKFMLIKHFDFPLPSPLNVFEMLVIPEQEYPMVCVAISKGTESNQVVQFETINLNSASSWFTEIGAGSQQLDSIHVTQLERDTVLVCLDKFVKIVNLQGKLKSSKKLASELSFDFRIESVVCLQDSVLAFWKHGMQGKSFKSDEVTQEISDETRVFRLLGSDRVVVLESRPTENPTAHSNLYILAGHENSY
Test [7] deals with Phosphatidylinositol 4-kinase alpha (Homo sapiens, UniProt P42356). Briefly: Selectivity interaction (Kinase panel (radiometric assay)) EUB0000877a PI4KA.
Test [8] has as its target Epidermal growth factor receptor (Homo sapiens, UniProt P00533). Put plainly: (§1) Selectivity interaction (KinomeScan (DiscoverX)) EUB0000092b EGFR. The following applies: at 10 µM.
The subject of test [9] is Epidermal growth factor receptor (Homo sapiens), P00533 [UNDEFINED MUTATION]. Described as §1. Conditions: at 10 µM.
In test [10] the test system is Epidermal growth factor receptor (Homo sapiens), P00533 [T790M]. The test is described as §1. Conditions: at 10 µM.
Epidermal growth factor receptor (Homo sapiens), P00533 [T790M], sequence (P00533 whole entry T790M): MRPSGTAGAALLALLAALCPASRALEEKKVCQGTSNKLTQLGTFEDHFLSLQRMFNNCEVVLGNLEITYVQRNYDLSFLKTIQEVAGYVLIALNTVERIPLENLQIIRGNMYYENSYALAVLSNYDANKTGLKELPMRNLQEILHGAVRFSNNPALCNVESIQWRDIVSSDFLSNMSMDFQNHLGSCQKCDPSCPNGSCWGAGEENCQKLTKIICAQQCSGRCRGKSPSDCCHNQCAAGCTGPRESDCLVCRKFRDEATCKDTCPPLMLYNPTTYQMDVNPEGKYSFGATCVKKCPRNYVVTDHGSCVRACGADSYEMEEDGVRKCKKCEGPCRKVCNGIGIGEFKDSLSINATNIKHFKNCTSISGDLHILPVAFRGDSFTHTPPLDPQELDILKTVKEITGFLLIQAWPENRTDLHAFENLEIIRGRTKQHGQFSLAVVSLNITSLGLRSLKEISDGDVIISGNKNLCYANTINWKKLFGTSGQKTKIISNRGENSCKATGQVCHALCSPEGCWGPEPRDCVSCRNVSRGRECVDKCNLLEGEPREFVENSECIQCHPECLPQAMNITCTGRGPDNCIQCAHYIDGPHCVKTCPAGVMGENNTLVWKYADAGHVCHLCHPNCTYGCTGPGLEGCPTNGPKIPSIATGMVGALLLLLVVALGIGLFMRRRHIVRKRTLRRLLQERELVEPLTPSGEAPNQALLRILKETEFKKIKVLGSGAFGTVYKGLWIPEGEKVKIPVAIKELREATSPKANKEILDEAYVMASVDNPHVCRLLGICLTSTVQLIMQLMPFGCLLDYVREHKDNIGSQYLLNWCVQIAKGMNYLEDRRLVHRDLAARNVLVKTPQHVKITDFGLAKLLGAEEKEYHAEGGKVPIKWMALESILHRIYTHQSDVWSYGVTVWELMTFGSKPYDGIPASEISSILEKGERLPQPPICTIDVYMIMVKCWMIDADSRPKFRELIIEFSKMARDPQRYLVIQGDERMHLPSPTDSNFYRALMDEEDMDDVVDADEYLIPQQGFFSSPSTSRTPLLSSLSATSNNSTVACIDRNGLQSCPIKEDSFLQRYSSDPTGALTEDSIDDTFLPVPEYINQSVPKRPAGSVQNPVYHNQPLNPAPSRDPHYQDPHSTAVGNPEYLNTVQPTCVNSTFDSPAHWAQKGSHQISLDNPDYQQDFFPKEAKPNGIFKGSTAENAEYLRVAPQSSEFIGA
Test [11] concerns Epidermal growth factor receptor (Homo sapiens), P00533 [L858R,T790M]. The description is as §1. The following applies: at 10 µM.
The subject of test [12] is Epidermal growth factor receptor (Homo sapiens), P00533 [L858R]. Described as §1. Conditions: at 10 µM.
The target of test [13] is T3, Alpha-1A adrenergic receptor (Homo sapiens) (UniProt P35348).
T3 sequence (whole entry): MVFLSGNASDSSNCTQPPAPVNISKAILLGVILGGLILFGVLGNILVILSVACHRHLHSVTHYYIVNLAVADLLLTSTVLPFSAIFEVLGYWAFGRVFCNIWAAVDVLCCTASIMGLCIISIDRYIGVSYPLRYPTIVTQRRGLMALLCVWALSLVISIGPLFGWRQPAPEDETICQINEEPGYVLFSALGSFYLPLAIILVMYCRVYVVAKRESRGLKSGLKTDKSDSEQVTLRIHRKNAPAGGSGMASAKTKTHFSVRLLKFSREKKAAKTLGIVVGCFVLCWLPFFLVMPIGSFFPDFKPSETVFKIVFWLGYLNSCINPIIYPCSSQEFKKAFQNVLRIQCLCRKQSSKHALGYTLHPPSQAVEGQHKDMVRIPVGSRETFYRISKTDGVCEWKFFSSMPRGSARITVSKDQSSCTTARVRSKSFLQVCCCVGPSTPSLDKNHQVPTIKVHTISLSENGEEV
Put plainly: Selectivity interaction (GPCR panel (PDSP screen)) EUB0001079a ADRA1A. The following applies: at 10 µM.

For test [14], the target named is Tyrosine-protein kinase FRK (Homo sapiens) (UniProt P42685). Briefly: Selectivity interaction (KinomeScan (DiscoverX)) EUB0000229b FRK. The following applies: at 10 µM.
Tyrosine-protein kinase FRK (Homo sapiens), sequence (P42685 whole entry): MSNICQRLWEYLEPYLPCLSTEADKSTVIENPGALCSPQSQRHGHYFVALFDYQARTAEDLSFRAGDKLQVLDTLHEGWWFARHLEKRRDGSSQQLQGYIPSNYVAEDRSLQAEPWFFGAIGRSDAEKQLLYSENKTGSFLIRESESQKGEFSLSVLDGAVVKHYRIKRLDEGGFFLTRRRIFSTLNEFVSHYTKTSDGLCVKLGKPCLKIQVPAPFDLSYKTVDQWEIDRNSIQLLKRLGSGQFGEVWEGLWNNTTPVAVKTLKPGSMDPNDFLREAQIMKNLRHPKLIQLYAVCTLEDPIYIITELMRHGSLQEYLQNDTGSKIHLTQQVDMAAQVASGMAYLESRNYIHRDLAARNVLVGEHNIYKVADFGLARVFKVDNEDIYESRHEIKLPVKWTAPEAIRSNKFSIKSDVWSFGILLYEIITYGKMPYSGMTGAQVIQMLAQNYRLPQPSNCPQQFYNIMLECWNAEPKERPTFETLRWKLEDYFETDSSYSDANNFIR

Where only a bound is given, the exact number is not on record here.

In general, IC50 refers to the point on the concentration scale where inhibition reaches its midpoint. A lower IC50 goes with greater potency.

Serine/threonine-protein kinase 10 (Homo sapiens), sequence (O94804 whole entry, looked up): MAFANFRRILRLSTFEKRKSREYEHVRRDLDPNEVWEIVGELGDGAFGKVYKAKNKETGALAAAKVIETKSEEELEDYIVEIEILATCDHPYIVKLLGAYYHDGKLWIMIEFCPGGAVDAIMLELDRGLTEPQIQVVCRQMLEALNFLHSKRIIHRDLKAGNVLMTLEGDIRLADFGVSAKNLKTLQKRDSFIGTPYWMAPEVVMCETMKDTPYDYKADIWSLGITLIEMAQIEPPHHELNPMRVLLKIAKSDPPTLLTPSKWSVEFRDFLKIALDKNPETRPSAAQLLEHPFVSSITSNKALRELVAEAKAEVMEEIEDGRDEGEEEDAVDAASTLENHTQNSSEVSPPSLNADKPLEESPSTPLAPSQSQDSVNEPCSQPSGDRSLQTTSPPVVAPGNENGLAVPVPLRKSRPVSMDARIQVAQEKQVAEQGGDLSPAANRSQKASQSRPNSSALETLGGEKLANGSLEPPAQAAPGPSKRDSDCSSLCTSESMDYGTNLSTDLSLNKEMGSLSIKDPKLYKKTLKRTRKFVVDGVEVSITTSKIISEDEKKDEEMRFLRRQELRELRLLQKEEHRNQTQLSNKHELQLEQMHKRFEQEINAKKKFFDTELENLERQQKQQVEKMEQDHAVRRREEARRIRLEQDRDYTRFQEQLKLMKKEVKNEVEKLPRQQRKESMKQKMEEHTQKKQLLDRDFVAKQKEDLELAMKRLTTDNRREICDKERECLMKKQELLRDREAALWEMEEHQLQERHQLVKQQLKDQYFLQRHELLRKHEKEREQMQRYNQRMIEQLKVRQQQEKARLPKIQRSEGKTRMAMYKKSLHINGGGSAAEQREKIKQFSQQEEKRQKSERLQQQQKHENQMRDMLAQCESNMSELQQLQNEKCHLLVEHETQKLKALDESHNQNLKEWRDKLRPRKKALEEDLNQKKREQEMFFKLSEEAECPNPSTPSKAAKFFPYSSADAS
Epidermal growth factor receptor, sequence (P00533 whole entry): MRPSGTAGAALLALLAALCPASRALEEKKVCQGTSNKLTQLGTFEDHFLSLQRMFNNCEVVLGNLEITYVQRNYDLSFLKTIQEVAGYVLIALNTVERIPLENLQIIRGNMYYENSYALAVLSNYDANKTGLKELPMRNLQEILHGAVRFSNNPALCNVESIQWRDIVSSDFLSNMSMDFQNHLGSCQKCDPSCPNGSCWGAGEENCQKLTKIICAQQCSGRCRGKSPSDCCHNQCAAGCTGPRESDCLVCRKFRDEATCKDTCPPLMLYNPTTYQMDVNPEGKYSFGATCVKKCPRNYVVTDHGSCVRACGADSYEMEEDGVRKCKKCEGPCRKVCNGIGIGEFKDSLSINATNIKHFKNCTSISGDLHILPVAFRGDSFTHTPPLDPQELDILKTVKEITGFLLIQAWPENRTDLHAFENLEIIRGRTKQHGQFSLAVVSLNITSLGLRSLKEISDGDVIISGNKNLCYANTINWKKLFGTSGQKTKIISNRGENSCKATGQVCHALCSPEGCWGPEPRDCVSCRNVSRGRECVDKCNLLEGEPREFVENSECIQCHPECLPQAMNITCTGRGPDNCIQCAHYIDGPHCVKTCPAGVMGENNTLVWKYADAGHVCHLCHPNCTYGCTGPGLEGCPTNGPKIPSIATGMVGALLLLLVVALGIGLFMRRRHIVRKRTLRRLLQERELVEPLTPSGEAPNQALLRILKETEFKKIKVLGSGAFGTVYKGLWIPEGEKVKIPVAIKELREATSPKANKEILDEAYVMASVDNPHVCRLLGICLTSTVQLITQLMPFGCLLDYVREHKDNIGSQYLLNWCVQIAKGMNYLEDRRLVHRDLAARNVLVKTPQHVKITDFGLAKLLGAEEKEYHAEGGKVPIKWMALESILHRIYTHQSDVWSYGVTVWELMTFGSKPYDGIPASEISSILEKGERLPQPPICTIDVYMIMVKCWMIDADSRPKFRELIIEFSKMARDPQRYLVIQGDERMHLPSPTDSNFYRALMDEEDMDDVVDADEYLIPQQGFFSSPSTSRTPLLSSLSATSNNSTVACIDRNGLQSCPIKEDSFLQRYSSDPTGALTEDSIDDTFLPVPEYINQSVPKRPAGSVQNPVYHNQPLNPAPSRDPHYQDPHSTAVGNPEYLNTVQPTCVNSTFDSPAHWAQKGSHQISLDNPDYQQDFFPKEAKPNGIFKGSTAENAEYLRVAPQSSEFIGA

`COCC(=O)NC/C=C/c1ccc2ncnc(Nc3ccc(Oc4ccc(C)nc4)c(C)c3)c2c1` [CP-724714]: the results for the % of control in [1] and in test [2] were 81% and 82%, respectively.

Regarding `Cc1cnc(Nc2ccc(F)cc2Cl)nc1-c1c[nH]c(C(=O)N[C@H](CO)c2cccc(Cl)c2)c1`, the % of inhibition was 5% in [3] and 0% in test [4].

As for `CC[C@@H]1[C@H](F)C(=O)N[C@@H]1COc1nccc2cc(C(N)=O)c(OC)cc12` [ZIMLOVISERTIB], the % of inhibition in test [5] (at 0.01 µM) was -11.4%; in test [5] (at 0.04 µM), -6.2%; in test [5] (at 0.2 µM), -5.3%; in test [5] (at 1 µM), 2.8%; in test [5] (at 5 µM), -12.4%.

As to `C=CC(=O)Nc1cccc(C(=O)Nc2ccc(Nc3cc(-c4[nH]c(SC)nc4C)ccn3)cc2)c1`, the % of control in test [6] (at 1 µM) was 71%; in test [6] (at 5 µM), 49%.

For `CCC(=O)N1CC[C@H](Nc2ncnc3c2CN(c2cnc(OC)c(C(F)(F)F)c2)CC3)C1` [LENIOLISIB], the IC50 in test [7] was > 9.1 µM.

Take `CCC(=O)N1CCN(c2ccc(-n3c(=O)ccc4cnc5ccc(-c6cnc7ccccc7c6)cc5c43)cc2C(F)(F)F)CC1`: the % of control in test [8] worked out at 85%; in test [9], 100%; in [10], 100%; in test [11], 100%; in test [12], 100%.

Turning to `Nc1cnc(N2CCc3cc(S(=O)(=O)Nc4c(F)cc(Cl)cc4F)cc(N4CCCC4=O)c32)nc1` [TP-020n], the % of inhibition in test [13] was -15.7%.

Consider `COc1cc(N(C)c2ccnc3ccc(C(F)(F)F)cc23)cc(OC)c1OC`, for which the % binding in test [14] amounted to 95%.
